Measured values taken from ChEMBL document CHEMBL1155519, “Discovery of N-phenyl-4-(thiazol-5-yl)pyrimidin-2-amine aurora kinase inhibitors” (J Med Chem, 2010).
Converted amounts (≈) assume the structure as drawn. The source made the active and inactive calls. No cut-off for these calls is given here.

Legend:
Aurora kinase A = target: T1, Aurora kinase A (Homo sapiens, UniProt O14965); test: Inhibition of human recombinant Aurora A after 30 mins
T1 sequence (O14965 whole entry): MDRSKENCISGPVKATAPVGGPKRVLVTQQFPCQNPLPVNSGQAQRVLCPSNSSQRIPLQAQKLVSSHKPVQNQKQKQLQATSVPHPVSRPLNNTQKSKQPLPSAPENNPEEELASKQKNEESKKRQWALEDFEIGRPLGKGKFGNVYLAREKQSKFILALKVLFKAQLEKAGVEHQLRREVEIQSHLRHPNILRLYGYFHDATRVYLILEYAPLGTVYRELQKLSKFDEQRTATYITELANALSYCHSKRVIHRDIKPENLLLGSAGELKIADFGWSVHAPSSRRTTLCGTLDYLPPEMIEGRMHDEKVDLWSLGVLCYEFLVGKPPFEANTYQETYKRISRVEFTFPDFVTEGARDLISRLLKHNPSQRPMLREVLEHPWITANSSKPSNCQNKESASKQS

[1] = target: Cyclin-dependent kinase 7 (Homo sapiens, UniProt P50613); test: Inhibition of CDK7
Cyclin-dependent kinase 7, sequence (P50613 whole entry): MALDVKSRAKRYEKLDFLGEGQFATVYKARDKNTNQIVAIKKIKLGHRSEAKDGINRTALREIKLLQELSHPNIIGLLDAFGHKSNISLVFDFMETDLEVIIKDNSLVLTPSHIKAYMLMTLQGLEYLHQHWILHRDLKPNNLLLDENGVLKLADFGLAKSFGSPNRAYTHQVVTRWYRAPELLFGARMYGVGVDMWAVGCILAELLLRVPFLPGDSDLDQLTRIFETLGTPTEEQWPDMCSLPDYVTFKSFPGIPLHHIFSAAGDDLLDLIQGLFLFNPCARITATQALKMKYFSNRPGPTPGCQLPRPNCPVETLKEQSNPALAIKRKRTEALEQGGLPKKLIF

[2] = Inhibition of Aurora kinase in human A549 cells assessed as concentration required for half-maximal inhibition of histone H3 serine-10 phosphorylation after 7 hrs immunofluorescence microscopy; assay type: cell-based; settings: A549, 7 h
MIA PaCa-2 = test: Cytotoxicity against human MIAPaCa2 cells after 96 hrs by MTT assay; assay type: functional, cell-based; settings: MIA PaCa-2, 96 h
[3] = target: Cyclin-dependent kinase 1 (Homo sapiens, UniProt P06493); test: Inhibition of CDK1
Cyclin-dependent kinase 1, sequence (P06493 whole entry): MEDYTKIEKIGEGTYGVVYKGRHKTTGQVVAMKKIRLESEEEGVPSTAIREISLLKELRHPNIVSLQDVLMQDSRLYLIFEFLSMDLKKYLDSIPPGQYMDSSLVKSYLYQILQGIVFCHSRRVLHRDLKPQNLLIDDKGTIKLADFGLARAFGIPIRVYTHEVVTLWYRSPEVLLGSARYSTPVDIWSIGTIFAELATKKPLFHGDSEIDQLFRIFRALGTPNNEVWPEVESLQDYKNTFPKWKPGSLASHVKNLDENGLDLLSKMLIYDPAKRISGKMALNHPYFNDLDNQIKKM

[4] = target: Cyclin-dependent kinase 2 (Homo sapiens, UniProt P24941)
A2780 = test: Cytotoxicity against human A2780 cells after 96 hrs by MTT assay; assay type: functional, cell-based; settings: A2780, 96 h
[5] = target: Cyclin-dependent kinase 9 (Homo sapiens, UniProt P50750); test: Inhibition of CDK9
Cyclin-dependent kinase 9, sequence (P50750 whole entry): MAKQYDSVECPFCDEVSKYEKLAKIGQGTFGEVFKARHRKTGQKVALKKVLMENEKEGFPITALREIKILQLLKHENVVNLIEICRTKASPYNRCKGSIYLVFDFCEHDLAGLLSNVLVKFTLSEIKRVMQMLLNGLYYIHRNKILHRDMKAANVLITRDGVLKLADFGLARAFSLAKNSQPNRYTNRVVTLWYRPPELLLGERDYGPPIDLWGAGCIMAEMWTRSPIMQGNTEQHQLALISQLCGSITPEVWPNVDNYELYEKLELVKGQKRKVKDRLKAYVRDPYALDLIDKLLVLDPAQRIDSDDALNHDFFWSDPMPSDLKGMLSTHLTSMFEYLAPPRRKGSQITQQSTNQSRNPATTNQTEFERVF

Aurora kinase B = Aurora kinase B (Homo sapiens, UniProt Q96GD4); test: Inhibition of human recombinant Aurora B after 60 mins
Aurora kinase B, sequence (Q96GD4 whole entry): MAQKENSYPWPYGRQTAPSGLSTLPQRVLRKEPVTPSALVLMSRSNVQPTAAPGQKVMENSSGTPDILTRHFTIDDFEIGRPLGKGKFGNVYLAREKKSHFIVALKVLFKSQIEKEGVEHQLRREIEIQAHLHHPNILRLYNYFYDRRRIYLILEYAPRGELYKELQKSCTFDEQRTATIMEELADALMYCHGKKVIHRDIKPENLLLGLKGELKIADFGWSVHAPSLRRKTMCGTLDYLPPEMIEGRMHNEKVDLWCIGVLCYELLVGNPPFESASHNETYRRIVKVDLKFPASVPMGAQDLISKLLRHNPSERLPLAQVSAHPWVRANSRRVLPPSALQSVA

[6] = target: Cyclin-dependent kinase 4 (Homo sapiens, UniProt P11802); test: Inhibition of CDK4
Cyclin-dependent kinase 4, sequence (P11802 whole entry): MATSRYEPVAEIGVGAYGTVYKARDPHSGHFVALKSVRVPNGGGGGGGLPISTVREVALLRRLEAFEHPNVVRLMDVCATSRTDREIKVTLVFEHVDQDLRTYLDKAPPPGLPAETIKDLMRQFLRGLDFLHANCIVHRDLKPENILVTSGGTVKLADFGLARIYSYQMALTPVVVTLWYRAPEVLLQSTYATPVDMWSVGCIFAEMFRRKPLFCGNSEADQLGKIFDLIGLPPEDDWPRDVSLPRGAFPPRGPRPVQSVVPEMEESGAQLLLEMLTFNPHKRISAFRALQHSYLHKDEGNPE

U2OS [7] = test: Inhibition of Aurora kinase in nocodazole-synchronized human U2OS cells assessed as reduction of histone H3 serine-10 phosphorylation at 0.07 to 10 uM after 2 hrs immunofluorescence microscopy; assay type: cell-based
U2OS [8] = test: Inhibition of Aurora kinase in asynchronous human U2OS cells assessed as reduction of histone H3 serine-10 phosphorylation at 150 nM after 7 hrs immunofluorescence microscopy; assay type: cell-based
MCF7 = test: Induction of p53 protein expression in human MCF7 cells at 0.07 to 10 uM after 7 hrs by fluorescent microscopy; assay type: functional, cell-based
HT-29 = test: Cytotoxicity against human HT-29 cells after 96 hrs by MTT assay; assay type: functional, cell-based; settings: HT-29, 96 h
A549 [9] = test: Cell cycle arrest in asynchronous human A549 cells assessed as accumulation of cyclin B-negative diploid cells at G1 phase at 0.5 uM after 24 hrs by FACS analysis; assay type: functional, cell-based
Liver microsomes = test: Intrinsic clearance in rat liver microsomes by LC/MS/MS analysis; assay type: ADME, Microsome
[10] = Cmax in Wistar rat at 10 mg/kg, po after 24 hrs by LC/MS/MS analysis; assay type: ADME, organism-based; set-up: dose 10 mg/kg, route oral; settings: in vivo
[11] = Dissociation constant, pKa by pH-metric titration method; assay type: physicochemical
K562 = test: Cytotoxicity against human K562 cells after 96 hrs by MTT assay; assay type: functional, cell-based; settings: K562, 96 h
SAOS-2 = test: Cytotoxicity against human Saos2 cells after 96 hrs by MTT assay; assay type: functional, cell-based; settings: SAOS-2, 96 h
A549 [12] = test: Cell cycle arrest in asynchronous human A549 cells assessed as accumulation of cyclin B-negative diploid and tetraploid cells at G1 phase at 2 uM after 24 hrs by FACS analysis; assay type: functional, cell-based
HeLa = test: Cytotoxicity against human HeLa cells after 96 hrs by MTT assay; assay type: functional, cell-based
[13] = Fraction unbound in rat plasma by equilibrium dialysis; assay type: ADME, cell-free
[14] = Elimination half life in Wistar rat at 10 mg/kg, po by LC/MS/MS analysis; assay type: ADME, organism-based; set-up: dose 10 mg/kg, route oral; settings: in vivo, read-out: beta t1/2 (converted)
HCT-116 = test: Cytotoxicity against human HCT116 cells after 96 hrs by MTT assay; assay type: functional, cell-based; settings: HCT-116, 96 h
BXPC-3 = test: Cytotoxicity against human BxPC3 cells after 96 hrs by MTT assay; assay type: functional, cell-based; settings: BXPC-3, 96 h
[15] = Half life in rat liver microsomes by LC/MS/MS analysis; assay type: ADME, Microsome
[16] = Aqueous solubility by turbidimetric analysis; assay type: physicochemical
MV4-11 = test: Cytotoxicity against human MV4-11 cells after 96 hrs by MTT assay; assay type: functional, cell-based; settings: MV4-11, 96 h
NCI-H460 = test: Cytotoxicity against human NCI-H460 cells after 96 hrs by MTT assay; assay type: functional, cell-based; settings: NCI-H460, 96 h
[17] = Apparent permeability across human Caco-2 cell membrane; assay type: ADME, cell-based
A549 [18] = test: Effect on mitotic index in asynchronous human A549 cells assessed as appearance of misaligned chromosomes with shortened spindle fibres at 0.5 uM after 8 hrs […]; assay type: functional, cell-based
[19] = AUC (0 to 24 hrs) in Wistar rat at 10 mg/kg, po after 24 hrs by LC/MS/MS analysis; assay type: ADME, organism-based; set-up: time < 24 hr, dose 10 mg/kg, route oral; settings: plasma
HL-60 = test: Cytotoxicity against human HL60 cells after 96 hrs by MTT assay; assay type: functional, cell-based; settings: HL-60, 96 h
[20] = Octanol-aqueous buffer partition coefficient, log D at pH 7.4 by shake-flask method; assay type: physicochemical
[21] = Clearance in Wistar rat at 10 mg/kg, po after 24 hrs by LC/MS/MS analysis; assay type: ADME, organism-based; set-up: dose 10 mg/kg, route oral; settings: in vivo
CCRF-CEM = test: Cytotoxicity against human CCRF-CEM cells after 96 hrs by MTT assay; assay type: functional, cell-based
HuP-T4 = test: Cytotoxicity against human HUPT4 cells after 96 hrs by MTT assay; assay type: functional, cell-based; settings: HuP-T4, 96 h
[22] = Oral bioavailability in Wistar rat at 10 mg/kg after 24 hrs by LC/MS/MS analysis; assay type: ADME, organism-based; settings: in vivo
A549 [23] = test: Cell cycle arrest in asynchronous human A549 cells assessed as accumulation of cyclin B-positive tetraploid cells at G2/M phase at 0.5 to 2 uM after 7 hrs by FACS analysis; assay type: functional, cell-based
COLO 205 = test: Cytotoxicity against human COLO205 cells after 96 hrs by MTT assay; assay type: functional, cell-based; settings: COLO 205, 96 h
[24] = Cytotoxicity against human MESSA cells after 96 hrs by MTT assay; assay type: functional, cell-based; settings: MES-SA

CNc1ccc(Nc2nccc(-c3sc(C)nc3C)n2)cc1
Ki (Aurora kinase A): 0.018 µM | Ki [1]: 4.24 µM | IC50 [2]: 1.76 µM | IC50 (MIA PaCa-2): 0.235 µM | Ki [3]: 0.909 µM | Ki [4]: 0.286 µM | IC50 (A2780): 0.147 µM | Ki [5]: 0.348 µM | Ki (Aurora kinase B): 0.033 µM | Ki [6]: 0.84 µM

Cc1nc(C)c(-c2ccnc(Nc3ccc(N)cc3)n2)s1
Ki (Aurora kinase A): 0.031 µM | Ki [1]: 2.56 µM | IC50 [2]: 0.94 µM | inhibition (U2OS [7]): Active | IC50 (MIA PaCa-2): 1.23 µM | Ki [3]: 0.769 µM | Activity (U2OS [8]): Active | Ki [4]: 0.168 µM | IC50 (A2780): 0.584 µM | Activity (MCF7): inactive | Ki [5]: 0.337 µM | Ki [6]: 0.807 µM

Cc1nc(C)c(-c2ccnc(Nc3ccc(N4CCN(S(C)(=O)=O)CC4)cc3)n2)s1
Ki (Aurora kinase A): 0.0092 µM | Ki [1]: > 10 µM | IC50 [2]: 1.11 µM | IC50 (MIA PaCa-2): 0.608 µM | Ki [3]: > 10 µM | Ki [4]: 3.97 µM | IC50 (A2780): 0.298 µM | Ki [5]: 1.47 µM | Ki (Aurora kinase B): 0.018 µM | Ki [6]: > 10 µM

CCNc1nc(C)c(-c2ccnc(Nc3ccc(CNC(C)=O)cc3)n2)s1
Ki (Aurora kinase A): 0.005 µM | Ki [1]: 0.171 µM | IC50 [2]: 0.76 µM | IC50 (MIA PaCa-2): 0.23 µM | Ki [3]: 0.24 µM | Ki [4]: 0.032 µM | IC50 (A2780): 0.081 µM | Ki [5]: 0.009 µM | Ki (Aurora kinase B): 0.004 µM | Ki [6]: 0.038 µM

CNc1nc(C)c(-c2ccnc(Nc3ccc(N4CCOCC4)cc3)n2)s1
Ki (Aurora kinase A): 0.019 µM | Ki [1]: > 10 µM | IC50 [2]: 3.7 µM | inhibition (U2OS [7]): Active | IC50 (MIA PaCa-2): 0.273 µM | Ki [3]: 3.93 µM | Activity (U2OS [8]): inactive | Ki [4]: 0.156 µM | IC50 (A2780): 0.144 µM | Activity (MCF7): inactive | Ki [5]: 2.61 µM | Ki (Aurora kinase B): 0.0094 µM | Ki [6]: 0.943 µM

CC(=O)N1CCN(c2ccc(Nc3nccc(-c4sc(C)nc4C)n3)cc2)CC1
Ki (Aurora kinase A): 0.0082 µM | Ki [1]: 2.8 µM | IC50 [2]: 0.36 µM | IC50 (MIA PaCa-2): 0.604 µM | Ki [3]: 1.89 µM | Ki [4]: 0.432 µM | IC50 (A2780): 0.303 µM | Ki [5]: 1.15 µM | Ki (Aurora kinase B): 0.013 µM | Ki [6]: 0.929 µM

CC(=O)N1CCN(c2ccc(Nc3nccc(-c4sc(N)nc4C)n3)cc2)CC1
Ki (Aurora kinase A): 0.0076 µM | Ki [1]: 2.15 µM | IC50 [2]: 0.59 µM | IC50 (MIA PaCa-2): 0.493 µM | Ki [3]: > 10 µM | Ki [4]: 0.522 µM | IC50 (A2780): 0.24 µM | Ki [5]: 0.264 µM | Ki (Aurora kinase B): 0.0038 µM | Ki [6]: 1.25 µM

Cc1nc(C)c(-c2ccnc(Nc3ccc(N(C)C)cc3)n2)s1
IC50 (HT-29): 0.128 µM | Activity (A549 [9]): Active | clearance (Liver microsomes): 296 µL/min/mg | Cmax [10]: 900 nM | pKa [11]: 5.5 | IC50 (K562): 0.04 µM | Ki (Aurora kinase A): 0.0069 µM | Ki [1]: 4.01 µM | IC50 (SAOS-2): 0.32 µM | IC50 [2]: 2.6 µM | Activity (A549 [12]): Active | inhibition (U2OS [7]): Active | IC50 (HeLa): 0.19 µM | fraction unbound [13]: 0.96 | half-life [14]: 4.4 h | IC50 (HCT-116): 0.133 µM | IC50 (BXPC-3): 0.093 µM | half-life [15]: 4.7 min | solubility kinetic [16]: 20 µM (≈ 6.51 µg/mL) | IC50 (MV4-11): 0.11 µM | IC50 (NCI-H460): 0.18 µM | IC50 (MIA PaCa-2): 0.177 µM | Papp [17]: 49.2 ×10⁻⁶ cm/s | Activity (A549 [18]): Active | AUC(0-t) at 24 h [19]: 6.9 µM·h | IC50 (HL-60): 0.128 µM | logD [20]: 1.33 | CL/F [21]: 70 mL/min/kg | IC50 (CCRF-CEM): 0.17 µM | Ki [3]: 2.52 µM | IC50 (HuP-T4): 0.156 µM | IC50 (A2780): 0.157 µM | bioavailability [22]: 7% | Activity (A549 [23]): Active | Ki [5]: 0.575 µM | IC50 (COLO 205): 0.084 µM | Ki (Aurora kinase B): 0.015 µM | IC50 [24]: 0.11 µM
